# Laboratory results taken from ChEMBL document CHEMBL5528025, “Design, synthesis and biological evaluation of carbamate derivatives incorporating multifunctional carrier scaffolds as pseudo-irreversible cholinesterase inhibitors for the treatment of Alzheimer's disease” (Eur J Med Chem, 2024).
# Active and inactive are the calls of the source. The calls are words filed in the database; no cut-off is given here.
# Assays:
# [1] = target: T1, Cholinesterase (Homo sapiens, UniProt P06276); assay: Pseudo-irreversible inhibition of human serum BuChE using butyrylthiocholine iodide as substrate at 4 times IC50 preincubated for 20 mins followed by dialysis and measured after 12 hrs by DTNB reagent based Ellman's method
# T1 sequence (P06276 whole entry): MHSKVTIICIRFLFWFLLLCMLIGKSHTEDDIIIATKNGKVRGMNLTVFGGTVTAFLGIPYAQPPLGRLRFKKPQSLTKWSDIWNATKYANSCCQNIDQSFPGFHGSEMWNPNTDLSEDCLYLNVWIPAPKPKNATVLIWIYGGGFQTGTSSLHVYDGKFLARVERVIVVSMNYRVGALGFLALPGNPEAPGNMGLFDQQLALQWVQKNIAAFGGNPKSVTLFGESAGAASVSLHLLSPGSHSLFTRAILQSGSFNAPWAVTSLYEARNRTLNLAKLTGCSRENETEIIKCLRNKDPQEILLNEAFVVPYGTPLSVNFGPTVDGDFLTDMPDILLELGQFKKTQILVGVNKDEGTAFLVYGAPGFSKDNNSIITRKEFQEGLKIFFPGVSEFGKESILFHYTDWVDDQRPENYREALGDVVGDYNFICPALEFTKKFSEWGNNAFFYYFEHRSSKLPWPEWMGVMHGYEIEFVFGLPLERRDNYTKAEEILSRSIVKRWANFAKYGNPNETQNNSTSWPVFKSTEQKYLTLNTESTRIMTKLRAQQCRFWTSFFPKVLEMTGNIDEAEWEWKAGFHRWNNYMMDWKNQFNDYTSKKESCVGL
# [2] = target: T2, Acetylcholinesterase (Homo sapiens, UniProt P22303); assay: Pseudo-irreversible inhibition of human erythrocyte AChE at 4 times IC50 preincubated for 20 mins followed by dialysis and measured after 12 hrs; assay type: cell-based
# T2 sequence (P22303 whole entry): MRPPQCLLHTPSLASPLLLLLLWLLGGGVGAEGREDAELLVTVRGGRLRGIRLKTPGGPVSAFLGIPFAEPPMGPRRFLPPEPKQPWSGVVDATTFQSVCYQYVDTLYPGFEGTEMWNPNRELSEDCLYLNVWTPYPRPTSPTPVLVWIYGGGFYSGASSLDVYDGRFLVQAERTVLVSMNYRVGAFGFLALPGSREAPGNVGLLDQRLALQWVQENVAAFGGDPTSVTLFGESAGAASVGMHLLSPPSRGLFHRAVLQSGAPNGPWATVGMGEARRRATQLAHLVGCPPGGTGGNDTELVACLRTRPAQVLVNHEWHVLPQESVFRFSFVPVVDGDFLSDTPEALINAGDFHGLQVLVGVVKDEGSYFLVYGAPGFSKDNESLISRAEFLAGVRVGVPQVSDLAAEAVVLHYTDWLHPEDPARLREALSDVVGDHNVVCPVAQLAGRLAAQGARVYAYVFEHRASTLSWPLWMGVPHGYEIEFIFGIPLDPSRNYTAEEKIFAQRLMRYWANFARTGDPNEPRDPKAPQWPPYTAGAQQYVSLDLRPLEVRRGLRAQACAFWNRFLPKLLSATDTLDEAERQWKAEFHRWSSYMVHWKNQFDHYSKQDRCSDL
# [3] = target: T1, Cholinesterase
# Description: Inhibition of human serum BuChE using butyrylthiocholine iodide as substrate incubated for 10 mins followed by substrate addition and measured after 10 mins by DTNB reagent based Ellman's method
# [4] = target: T2, Acetylcholinesterase
# Description: Inhibition of human erythrocyte AChE incubated for 10 mins
# [5] = system: PC-12; assay: (§1) Neuroprotective activity against H2O2-induced rat PC-12 cells assessed as protection against H2O2-induced apoptosis by measuring late apoptotic cells at 10 uM pretreated for 1 hr followed by H2O2 addition and measured after 24 hrs by Annexin V-FITC/PI staining based flow cytometry analysis (reference value: 7.97%); assay type: functional; conditions: time 25 hrs
# [6] = system: PC-12; assay: as §1, with “live” for “late apoptotic”, “63.2%)” for “7.97%)”; assay type: functional; conditions: time 25 hrs
# [7] = system: Mus musculus; assay: Antialzheimer activity in amyloid beta (1 to 42 residues) induced ICR mouse model assessed as reduction in learning deficits by measuring increase in duration of time spent within target quadrant at 5 to 20 mg/kg, ip administered daily and measured after 13 to 17 days by morris water maze test; assay type: functional, organism-based; conditions: dose 5-20 mg/kg, time 13-17 day
# [8] = system: Mus musculus; assay: In vivo inhibition of BuChE in scopolamine treated ICR mouse assessed as reduction in BuChE level in brain at 20 mg/kg, ip preadministered with scopolamine for 7 days followed by compound administration and measured after 7 days; assay type: functional, organism-based; conditions: time 7.0 day
# [9] = system: Mus musculus; assay: Antialzheimer activity in amyloid beta (1 to 42 residues) induced ICR mouse model assessed as reduction in nerve damage by measuring increase in live neurons in hippocampal CA3 region at 20 mg/kg, ip administered daily by nissl staining based fluorescence microscopy; assay type: functional, organism-based
# [10] = system: BV-2; assay: Cytotoxicity against mouse BV-2 cells assessed as reduction in cell viability at 5 uM incubated for 24 hrs by CCK-8 assay; assay type: toxicity, cell-based; conditions: bv-2, 24 h
# [11] = system: BV-2; assay: Antineuroinflammatory activity in LPS-induced mouse BV-2 cells assessed as increase in IL-4 level at 1.25 to 5 uM incubated for 24 hrs by ELISA; assay type: functional, cell-based; conditions: dose 1.25-5 µM
# [12] = system: Mus musculus; assay: In vivo inhibition of AChE in scopolamine treated ICR mouse assessed as reduction in AChE level in brain at 5 to 20 mg/kg, ip preadministered with scopolamine for 7 days followed by compound administration and measured after 7 days; assay type: functional, organism-based; conditions: dose 5-20 mg/kg, time 7.0 day
# [13] = system: Mus musculus; assay: Antialzheimer activity in amyloid beta (1 to 42 residues) induced ICR mouse model assessed as reduction in nerve damage by measuring increase in live neurons in hippocampal CA1 region at 5 to 20 mg/kg, ip administered daily by nissl staining based fluorescence microscopy; assay type: functional, organism-based; conditions: dose 5-20 mg/kg
# [14] = Hepatotoxicity in IG dosed ICR mouse measured after 48 hrs; assay type: toxicity, organism-based; conditions: in vivo, po
# [15] = Cytotoxicity against rat PC-12 cells assessed as cell viability at 10 uM incubated for 24 hrs by CCK-8 assay relative to control; assay type: toxicity, cell-based; conditions: read-out: Activity
# [16] = Acute toxicity in ICR mouse assessed as histopathological change in heart at 100 to 500 mg/kg, ip measured after 14 days by H and E staining based analysis; assay type: organism-based; conditions: in vivo, 336 h, dose 100-500 mg/kg, time 14 day
# [17] = system: Mus musculus; assay: Antialzheimer activity in amyloid beta (1 to 42 residues) induced ICR mouse model assessed as reduction in learning deficits by measuring reduction in path search distance at 5 to 20 mg/kg, ip administered daily and measured on day 4 by morris water maze test; assay type: functional, organism-based; conditions: dose 5-20 mg/kg, time 4.0 day
# [18] = Acute toxicity in ICR mouse assessed as histopathological change in liver at 100 to 500 mg/kg, ip measured after 14 days by H and E staining based analysis; assay type: organism-based; conditions: in vivo, 336 h, dose 100-500 mg/kg, time 14 day
# [19] = system: Mus musculus; assay: Antialzheimer activity in amyloid beta (1 to 42 residues) induced ICR mouse model assessed as increase in step through latency at 5 to 20 mg/kg, ip administered daily and measured on day 18 and 19 by passive avoidance test; assay type: functional, organism-based; conditions: dose 5-20 mg/kg, time 18-19 day
# [20] = Acute toxicity in ICR mouse assessed as reduction in body weight at 100 to 500 mg/kg, ip measured after 2 days; assay type: organism-based; conditions: in vivo, 48 h, dose 100-500 mg/kg, time 2 day
# [21] = system: PC-12; assay: Inhibition of H2O2 induced ROS production in rat PC-12 cells assessed as reduction in intracellular ROS level at 10 uM pretreated for 1 hr followed by H2O2 stimulation and measured after 24 hrs by confocal microscopic analysis; assay type: functional, cell-based; conditions: time 25.0 hrs
# [22] = system: Mus musculus; assay: Antialzheimer activity in ip dosed amyloid beta (1 to 42 residues) induced ICR mouse model assessed as reduction in learning deficits by measuring increase in alternation performance administered daily and measured on day 12 by Y-maze test; assay type: functional, organism-based; conditions: dose 5-20 mg/kg, time 12.0 day
# [23] = Acute toxicity in ICR mouse assessed as abnormal dietary patterns at 100 to 500 mg/kg, ip measured after 14 days; assay type: organism-based; conditions: in vivo, 336 h, dose 100-500 mg/kg, time 14 day
# [24] = Acute toxicity in ICR mouse assessed as aberrant behavior at 100 to 500 mg/kg, ip measured after 14 days; assay type: organism-based; conditions: in vivo, 336 h, dose 100-500 mg/kg, time 14 day
# [25] = Acute toxicity in ICR mouse assessed as histopathological change in spleen at 100 to 500 mg/kg, ip measured after 14 days by H and E staining based analysis; assay type: organism-based; conditions: in vivo, 336 h, dose 100-500 mg/kg, time 14 day
# [26] = system: Mus musculus; assay: Antialzheimer activity in amyloid beta (1 to 42 residues) induced ICR mouse model assessed as reduction in learning deficits by measuring increase in distance traveled within target quadrant at 5 to 20 mg/kg, ip administered daily and measured after 13 to 17 days by morris water maze test; assay type: functional, organism-based; conditions: dose 5-20 mg/kg, time 13-17 day
# [27] = system: Mus musculus; assay: Antialzheimer activity in amyloid beta (1 to 42 residues) induced ICR mouse model assessed as reduction in learning deficits by measuring reduction in latency at 5 to 20 mg/kg, ip administered daily and measured for 3 days by morris water maze test; assay type: functional, organism-based; conditions: dose 5-20 mg/kg, time 3.0 day
# [28] = system: Mus musculus; assay: Antialzheimer activity in amyloid beta (1 to 42 residues) induced ICR mouse model assessed as reduction in learning deficits by measuring increase in trajectory within target quadrant at 5 to 20 mg/kg, ip administered daily and measured after 13 to 17 days by morris water maze test; assay type: functional, organism-based; conditions: dose 5-20 mg/kg, time 13-17 day
# [29] = Acute toxicity in ICR mouse assessed as histopathological change in brain at 100 to 500 mg/kg, ip measured after 14 days by H and E staining based analysis; assay type: organism-based; conditions: in vivo, 336 h, dose 100-500 mg/kg, time 14 day
smiles,measurement,setting,value
CCN(C)C(=O)Oc1cccc([C@H](C)N(C)C)c1,inhibition,[1],Active
same,inhibition,[2],Active
C[C@@H](c1cccc(OC(=O)NCCCCCCNc2c3c(nc4cc(Br)ccc24)CCCC3)c1)N(C)C,IC50,[3],9.65 nM
same,IC50,[4],56 nM
C[C@@H](c1cccc(OC(=O)NCCCNc2c3c(nc4ccccc24)CCCC3)c1)N(C)C,IC50,[3],23.2 nM
same,IC50,[4],385 nM
O=C(NCCCCCNc1c2c(nc3cc(Cl)ccc13)CCCC2)Oc1ccc(-c2cc3cccnc3[nH]2)cc1,IC50,[3],1660 nM
same,IC50,[4],23.1 nM
O=C(NCCCCCNc1c2c(nc3cc(Br)ccc13)CCCC2)Oc1ccc(-c2cc3cccnc3[nH]2)cc1,IC50,[3],791 nM
same,IC50,[4],59.1 nM
O=C(NCCCCCNc1c2c(nc3ccccc13)CCCC2)Oc1ccc(-c2cc3cccnc3[nH]2)cc1,IC50,[3],21.2 nM
same,IC50,[4],153 nM
C[C@@H](c1cccc(OC(=O)NCCCCCCNc2c3c(nc4cc(F)ccc24)CCCC3)c1)N(C)C,IC50,[3],11 nM
same,IC50,[4],42.2 nM
O=C(NCCCCNc1c2c(nc3ccccc13)CCCC2)Oc1ccc2cc[nH]c2c1,IC50,[3],1.35 nM
same,IC50,[4],510 nM
O=C(NCCCCCCNc1c2c(nc3cc(F)ccc13)CCCC2)Oc1ccc2cc[nH]c2c1,IC50,[3],43.1 nM
same,IC50,[4],297 nM
O=C(NCCNc1c2c(nc3ccccc13)CCCC2)Oc1ccc(-c2cc3cccnc3[nH]2)cc1,IC50,[3],52.2 nM
same,IC50,[4],> 10000 nM
C[C@@H](c1cccc(OC(=O)NCCCCCCNc2c3c(nc4cc(Cl)ccc24)CCCC3)c1)N(C)C,IC50,[3],92.8 nM
same,IC50,[4],25.6 nM
Oc1ccc(/C=C/c2cc(O)cc(O)c2)cc1 [RESVERATROL],Activity,[5],1.4%
same,Activity,[6],87.3%
O=C(NCCCCCCNc1c2c(nc3cc(F)ccc13)CCCC2)Oc1ccc(-c2cc3cccnc3[nH]2)cc1,IC50,[3],48 nM
same,Activity,[7],Active
same,inhibition,[8],Active
same,Activity,[9],Active
same,Activity,[10],Non-Toxic
same,Activity,[11],Active
same,inhibition,[1],Active
same,Activity,[5],5.8%
same,inhibition,[12],Active
same,Activity,[13],Active
same,LD50 at 48 h,[14],> 500 mg/kg
same,"viability at 24 h, 10 µM",[15],> 90%
same,Activity,[16],Non-Toxic
same,Activity,[17],Active
same,Activity,[18],Non-Toxic
same,Activity,[19],Active
same,Activity,[20],Toxic
same,inhibition,[21],Active
same,Activity,[6],81.3%
same,Activity,[22],Dose-Dependent Effect
same,Activity,[23],Non-Toxic
same,Activity,[24],Non-Toxic
same,Activity,[25],Non-Toxic
same,Activity,[26],Active
same,Activity,[27],Active
same,Activity,[28],Active
same,Activity,[29],Non-Toxic
same,inhibition,[2],Active
same,IC50,[4],30.4 nM
O=C(NCCCCCNc1c2c(nc3cc(F)ccc13)CCCC2)Oc1ccc(-c2cc3cccnc3[nH]2)cc1,IC50,[3],334 nM
same,IC50,[4],152 nM
O=C(NCCCCNc1c2c(nc3ccccc13)CCCC2)Oc1ccc(-c2cc3cccnc3[nH]2)cc1,IC50,[3],20.5 nM
same,Activity,[10],Non-Toxic
same,Activity,[11],Active
same,Activity,[5],2.92%
same,"viability at 24 h, 10 µM",[15],> 90%
same,inhibition,[21],Active
same,Activity,[6],77.2%
same,IC50,[4],205 nM
C[C@@H](c1cccc(OC(=O)NCCCCCNc2c3c(nc4ccccc24)CCCC3)c1)N(C)C,IC50,[3],12 nM
same,IC50,[4],117 nM
O=C(NCCCCCCNc1c2c(nc3cc(Cl)ccc13)CCCC2)Oc1ccc2cc[nH]c2c1,IC50,[3],64.4 nM
same,IC50,[4],153 nM
